Measurements as given in ChEMBL document CHEMBL3044680, “Synthesis, characterization, and antimicrobial studies of novel 1,3,4-thiadiazolium-5-thiolates” (2012).
Converted amounts (≈) assume the structure as drawn.

Key:
Assay type in all cases: functional
Pseudomonas aeruginosa [1] = assay: Antimicrobial activity against Pseudomonas aeruginosa after overnight incubation by broth dilution method
Escherichia coli [2] = assay: Antimicrobial activity against Escherichia coli after overnight incubation by broth dilution method
Pseudomonas aeruginosa [3] = assay: Antimicrobial activity against Pseudomonas aeruginosa at 200 ug/ml after 48 hr by cup-plate method; details: read-out: IZ
Staphylococcus aureus [4] = assay: Antimicrobial activity against Staphylococcus aureus at 200 ug/ml after 48 hr by cup-plate method; details: read-out: IZ
Escherichia coli [5] = assay: Antimicrobial activity against Escherichia coli at 200 ug/ml after 48 hr by cup-plate method; details: read-out: IZ
Bacillus subtilis [6] = assay: Antimicrobial activity against Bacillus subtilis at 200 ug/ml after 48 hr by cup-plate method; details: read-out: IZ
Staphylococcus aureus [7] = assay: Antimicrobial activity against Staphylococcus aureus after overnight incubation by broth dilution method
Bacillus subtilis [8] = assay: Antimicrobial activity against Bacillus subtilis after overnight incubation by broth dilution method

MIC (Pseudomonas aeruginosa [1])	MIC (Escherichia coli [2])	MIC (Staphylococcus aureus [7])	MIC (Bacillus subtilis [8])	SMILES	zone of inhibition at 200 µg/mL (Pseudomonas aeruginosa [3])	zone of inhibition at 200 µg/mL (Staphylococcus aureus [4])	zone of inhibition at 200 µg/mL (Escherichia coli [5])	zone of inhibition at 200 µg/mL (Bacillus subtilis [6])
16 µg/mL (≈ 35 µM)	32 µg/mL (≈ 70.1 µM)	1 µg/mL (≈ 2.19 µM)	8 µg/mL (≈ 17.5 µM)	Cc1sc([S-])n[n+]1C(=O)c1ccc(-n2c(-c3ccccc3)nc3ccccc3c2=O)cc1	18 mm	28 mm	17 mm	22 mm
8 µg/mL (≈ 15.4 µM)	2 µg/mL (≈ 3.86 µM)	4 µg/mL (≈ 7.71 µM)	2 µg/mL (≈ 3.86 µM)	O=C(c1ccc(-n2c(-c3ccccc3)nc3ccccc3c2=O)cc1)[n+]1nc([S-])sc1-c1ccccc1	22 mm	24 mm	28 mm	25 mm
8 µg/mL (≈ 13.4 µM)	16 µg/mL (≈ 26.8 µM)	2 µg/mL (≈ 3.34 µM)	16 µg/mL (≈ 26.8 µM)	O=C(c1ccc(-n2c(-c3ccccc3)nc3ccccc3c2=O)cc1)[n+]1nc([S-])sc1-c1cc([N+](=O)[O-])ccc1Cl	22 mm	26 mm	19 mm	18 mm
4 µg/mL (≈ 6.69 µM)	8 µg/mL (≈ 13.4 µM)	8 µg/mL (≈ 13.4 µM)	64 µg/mL (≈ 107 µM)	O=C(c1ccc(-n2c(-c3ccccc3)nc3ccccc3c2=O)cc1)[n+]1nc([S-])sc1-c1ccc(Cl)c([N+](=O)[O-])c1	24 mm	20 mm	22 mm	14 mm
2 µg/mL (≈ 3.37 µM)	32 µg/mL (≈ 53.9 µM)	16 µg/mL (≈ 27 µM)	32 µg/mL (≈ 53.9 µM)	COc1ccc(-c2sc([S-])n[n+]2C(=O)c2ccc(-n3c(-c4ccccc4)nc4ccccc4c3=O)cc2)cc1[N+](=O)[O-]	27 mm	19 mm	15 mm	16 mm
8 µg/mL (≈ 14.5 µM)	16 µg/mL (≈ 28.9 µM)	8 µg/mL (≈ 14.5 µM)	8 µg/mL (≈ 14.5 µM)	O=C(c1ccc(-n2c(-c3ccccc3)nc3ccccc3c2=O)cc1)[n+]1nc([S-])sc1-c1ccc(Cl)cc1	21 mm	22 mm	16 mm	20 mm
8 µg/mL (≈ 14.2 µM)	4 µg/mL (≈ 7.1 µM)	8 µg/mL (≈ 14.2 µM)	4 µg/mL (≈ 7.1 µM)	O=C(c1ccc(-n2c(-c3ccccc3)nc3ccccc3c2=O)cc1)[n+]1nc([S-])sc1-c1ccc([N+](=O)[O-])cc1	22 mm	20 mm	23 mm	24 mm
	64 µg/mL (≈ 114 µM)	64 µg/mL (≈ 114 µM)	64 µg/mL (≈ 114 µM)	O=C(c1ccc(-n2c(-c3ccccc3)nc3ccccc3c2=O)cc1)[n+]1nc([S-])sc1-c1cccc([N+](=O)[O-])c1	10 mm	11 mm	13 mm	15 mm
4 µg/mL (≈ 8.78 µM)	8 µg/mL (≈ 17.6 µM)	16 µg/mL (≈ 35.1 µM)	8 µg/mL (≈ 17.6 µM)	Cc1sc([S-])n[n+]1C(=O)c1ccc(Nc2nc(-c3ccccc3)nc3ccccc23)cc1	23 mm	19 mm	20 mm	21 mm
4 µg/mL (≈ 7.73 µM)	8 µg/mL (≈ 15.5 µM)	16 µg/mL (≈ 30.9 µM)	16 µg/mL (≈ 30.9 µM)	O=C(c1ccc(Nc2nc(-c3ccccc3)nc3ccccc23)cc1)[n+]1nc([S-])sc1-c1ccccc1	24 mm	19 mm	20 mm	18 mm
2 µg/mL (≈ 3.35 µM)	4 µg/mL (≈ 6.7 µM)	4 µg/mL (≈ 6.7 µM)	8 µg/mL (≈ 13.4 µM)	O=C(c1ccc(Nc2nc(-c3ccccc3)nc3ccccc23)cc1)[n+]1nc([S-])sc1-c1cc([N+](=O)[O-])ccc1Cl	26 mm	23 mm	24 mm	22 mm
8 µg/mL (≈ 13.4 µM)	32 µg/mL (≈ 53.6 µM)	8 µg/mL (≈ 13.4 µM)	16 µg/mL (≈ 26.8 µM)	O=C(c1ccc(Nc2nc(-c3ccccc3)nc3ccccc23)cc1)[n+]1nc([S-])sc1-c1ccc(Cl)c([N+](=O)[O-])c1	22 mm	20 mm	15 mm	19 mm
8 µg/mL (≈ 13.5 µM)	4 µg/mL (≈ 6.75 µM)	8 µg/mL (≈ 13.5 µM)	4 µg/mL (≈ 6.75 µM)	COc1ccc(-c2sc([S-])n[n+]2C(=O)c2ccc(Nc3nc(-c4ccccc4)nc4ccccc34)cc2)cc1[N+](=O)[O-]	22 mm	22 mm	23 mm	24 mm
4 µg/mL (≈ 7.25 µM)	8 µg/mL (≈ 14.5 µM)	16 µg/mL (≈ 29 µM)	8 µg/mL (≈ 14.5 µM)	O=C(c1ccc(Nc2nc(-c3ccccc3)nc3ccccc23)cc1)[n+]1nc([S-])sc1-c1ccc(Cl)cc1	24 mm	19 mm	22 mm	21 mm
32 µg/mL (≈ 56.9 µM)	16 µg/mL (≈ 28.4 µM)	32 µg/mL (≈ 56.9 µM)	16 µg/mL (≈ 28.4 µM)	O=C(c1ccc(Nc2nc(-c3ccccc3)nc3ccccc23)cc1)[n+]1nc([S-])sc1-c1ccc([N+](=O)[O-])cc1	15 mm	16 mm	18 mm	19 mm
8 µg/mL (≈ 14.2 µM)	16 µg/mL (≈ 28.4 µM)	8 µg/mL (≈ 14.2 µM)	32 µg/mL (≈ 56.9 µM)	O=C(c1ccc(Nc2nc(-c3ccccc3)nc3ccccc23)cc1)[n+]1nc([S-])sc1-c1cccc([N+](=O)[O-])c1	22 mm	21 mm	20 mm	16 mm

SMILES	MIC (Pseudomonas aeruginosa [1])	MIC (Escherichia coli [2])	MIC (Staphylococcus aureus [7])	MIC (Bacillus subtilis [8])	zone of inhibition at 200 µg/mL (Pseudomonas aeruginosa [3])	zone of inhibition at 200 µg/mL (Staphylococcus aureus [4])	zone of inhibition at 200 µg/mL (Escherichia coli [5])	zone of inhibition at 200 µg/mL (Bacillus subtilis [6])
O=C(O)c1cn(C2CC2)c2cc(N3CCNCC3)c(F)cc2c1=O [CIPROFLOXACIN]			1 µg/mL (≈ 3.02 µM)	0.5 µg/mL (≈ 1.51 µM)	41 mm	31 mm	38 mm	35 mm
